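Briefly, cells in 96-well plates were exposed to five compound concentrations for 48 h, and endpoints were estimated by linear interpolation. GI50 = concentration required for 50% inhibition of growth.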 Calls of active or inactive are those of the source. Rule as the data show it: active = GI50 up to about 1.1 µM and inactive = higher.
Key:
Assay in all cases: NCI-60 cell line screen, 48 h
A498 = system: A498
ACHN = system: ACHN
COLO 205 = system: COLO 205
DU-145 = system: DU-145
HCC 2998 = system: HCC 2998
HOP-62 = system: HOP-62
HT-29 = system: HT-29
KM12 = system: KM12
M14 = system: M14
MCF7 = system: MCF7
MDA-MB-231 = system: MDA-MB-231
NCI-H226 = system: NCI-H226
NCI/ADR-RES = system: NCI/ADR-RES
OVCAR-5 = system: OVCAR-5
SF-539 = system: SF-539
SN12C = system: SN12C
Malme-3M = system: Malme-3M
NCI-H522 = system: NCI-H522
MDA-N = system: MDA-N

Measured: GI50

CC1=CCC[C@H]2[C@](C)(CC3=CC(=O)C(SCC(C)C)=CC3=O)[C@@H](C)CC[C@]12C
inactive: A498 18.8 µM | ACHN 15.6 µM | COLO 205 13.2 µM | DU-145 14.7 µM | HCC 2998 16.3 µM | HOP-62 14.6 µM | HT-29 15.4 µM | KM12 11.2 µM | M14 18.2 µM | MCF7 9.71 µM | MDA-MB-231 24.6 µM | NCI-H226 11.8 µM | NCI/ADR-RES 16 µM | OVCAR-5 18.5 µM | SF-539 18 µM | SN12C 24.9 µM

O=[N+]([O-])c1ccc2nc3ccscc-3c2c1
inactive: A498 8.36 µM | ACHN 13.6 µM | COLO 205 18.5 µM | HCC 2998 15.2 µM | HOP-62 17.9 µM | HT-29 22.6 µM | KM12 7.52 µM | M14 16 µM | Malme-3M 29 µM | NCI-H226 20.9 µM | NCI-H522 12.4 µM | OVCAR-5 35.3 µM | SF-539 8.49 µM

Cc1cc(N(CCC#N)CCC#N)ccc1/N=N/c1ccc([N+](=O)[O-])cc1
inactive: A498 > 100 µM | ACHN 95.9 µM | COLO 205 > 100 µM | HCC 2998 > 100 µM | HOP-62 > 100 µM | HT-29 > 100 µM | KM12 > 100 µM | M14 > 100 µM | Malme-3M > 100 µM | NCI-H226 > 100 µM | NCI-H522 > 100 µM | OVCAR-5 > 100 µM | SF-539 > 100 µM | SN12C 65.8 µM

Cc1ccc2c(c1)NC(c1ccc(C(=O)O)cc1)c1cccn1-2 (configuration not stated)
inactive: A498 22.9 µM | ACHN 19.3 µM | COLO 205 > 100 µM | DU-145 26 µM | HOP-62 24 µM | HT-29 78.3 µM | KM12 30.7 µM | M14 46.8 µM | MCF7 25.1 µM | MDA-MB-231 37.2 µM | MDA-N 75.2 µM | NCI-H226 > 100 µM | OVCAR-5 > 100 µM | SF-539 > 100 µM | SN12C 69.7 µM

O=C(O)[C@@H]1CCCC[C@@H]1C(=O)N(C1CCCCC1)C1CCCCC1
inactive: A498 > 100 µM | ACHN > 100 µM | COLO 205 > 100 µM | HCC 2998 > 100 µM | HOP-62 > 100 µM | HT-29 > 100 µM | KM12 > 100 µM | M14 > 100 µM | Malme-3M > 100 µM | NCI-H226 > 100 µM | NCI-H522 > 100 µM | OVCAR-5 > 100 µM | SF-539 > 100 µM | SN12C > 100 µM

CC(=O)NC(CCCN(Cc1ccccc1)C(=O)N(CCCl)N=O)C(=O)NCc1ccccc1 (configuration not stated)
inactive: A498 32.7 µM | ACHN 10.8 µM | COLO 205 > 64.7 µM | HCC 2998 64.6 µM | HOP-62 7.24 µM | HT-29 > 57.5 µM | KM12 60.5 µM | M14 42.7 µM | Malme-3M > 53.1 µM | NCI-H226 44.9 µM | NCI-H522 57.1 µM | OVCAR-5 35.2 µM | SF-539 2.54 µM | SN12C 46.3 µM

O=C1N2Cc3c4ccc5c3CN3C(=O)N6Cc7c(ccc(c7CN1C6(c1ccccc1)C23c1ccccc1)OCCOCCNCCOCCO4)OCCOCCNCCOCCO5 (configuration not stated)
inactive: A498 > 100 µM | ACHN 22.5 µM | HCC 2998 34.9 µM | HOP-62 > 100 µM | HT-29 13.9 µM | KM12 18.5 µM | M14 21.8 µM | Malme-3M 23.5 µM | NCI-H226 > 100 µM | NCI-H522 > 100 µM | OVCAR-5 > 100 µM | SF-539 56.9 µM | SN12C 19.5 µM

CN(C)CCn1cnc2sc3ccccc3c21
inactive: A498 > 100 µM | ACHN > 100 µM | COLO 205 > 100 µM | HCC 2998 > 100 µM | HOP-62 > 100 µM | HT-29 > 100 µM | KM12 > 100 µM | M14 > 100 µM | Malme-3M > 100 µM | NCI-H226 40.4 µM | NCI-H522 > 100 µM | OVCAR-5 > 100 µM | SF-539 > 100 µM | SN12C > 100 µM

Nc1nc(N)c2ncn(CCOC(c3ccccc3)P(=O)(O)O)c2n1 (configuration not stated)
inactive: A498 > 100 µM | ACHN > 100 µM | COLO 205 > 100 µM | HCC 2998 > 100 µM | HT-29 > 100 µM | KM12 > 100 µM | Malme-3M > 100 µM | NCI-H226 > 100 µM | NCI-H522 > 100 µM | OVCAR-5 > 100 µM | SF-539 > 100 µM | SN12C > 100 µM

N#C[BH2-][n+]1ccc(C(=O)NNC(c2ccccc2)C(F)(F)F)cc1 (configuration not stated)
inactive: ACHN > 100 µM | COLO 205 > 100 µM | DU-145 > 100 µM | HCC 2998 > 100 µM | HOP-62 97.7 µM | HT-29 > 100 µM | KM12 > 100 µM | M14 > 100 µM | MCF7 > 100 µM | MDA-MB-231 > 100 µM | Malme-3M > 100 µM | NCI-H226 > 100 µM | NCI-H522 68.9 µM | NCI/ADR-RES > 100 µM | OVCAR-5 > 100 µM | SF-539 > 100 µM | SN12C > 100 µM
